The values that follow come from US6670383B2, “Pyranocoumarin compounds as a novel pharmacophore with anti-TB activity” (priority 2001, dated 2003).

Assay [1] concerns M. tuberculosis H37Ra. Nature of the assay: MIC and MBC determination using 2-fold dilutions. In kind it is cell-based. As to conditions: for MIC / MBC: Mycobacterium tuberculosis.
For assay [2], the system named is M. tuberculosis H37Ra. The experiment in a line: colorimetric microdilution broth assay with alamar Blue, initial screen at four log10 dilutions. In kind it is cell-based. The note with it: Mycobacterium tuberculosis, H37RA, initial screening at 0.128, 1.28, 12.8 and 128 μg/mL, read-out: MIC. The method, then:
The compounds synthesized above were evaluated for activity against M. tuberculosis H37Ra using a colorimetric microdilution broth assay that incorporated the REDOX indicator alamar Blue, which indicates the growth and viability by the metabolic reduction of the dye from blue to red^18.
In an initial screen, the compounds were assayed in duplicate at four log10 dilutions, with the highest concentration being 128 μg/mL (therefore, tested concentrations were 0.128, 1.28, 12.8, and 128 μg/mL). Each solubilized test compound was diluted in broth medium (Middlebrook 7H9+ADC enrichment+0.2% glycerol) at twice the desired concentration and 0.05 mL of each dilution then added to appropriate wells in duplicate in a 96 well (U-shaped) microtiter plates. A plate format was designed for up to seven (7) compounds per plate. Each plate also included uninoculated drug controls, viability controls, uninoculated medium controls, and positive drug controls. The inoculum for each well consisted of 0.05 mL of culture, standardized as described above to provide an inoculum in each microtiter well of approximately 10^5 CFU/mL. The plates were covered with a lid, placed in polyethylene bags and incubated for at 37° C. for 6 days. At that time, alamar Blue, diluted in Tween 80, was added to each well followed by further incubation for about 20 hours. The plates were read in an optical microplate reader programmed to subtract absorbance at 600 nm from absorbance at 570 nm. This effectively blanked out turbidity and absorbance due to oxidized dye. The amount of dye reduced, resulting in a change from blue to red, is indicative of drug yielding a differential absorption of zero or less.
A general note: Broth dilution looks for growth in wells or tubes with falling amounts of substance.

The nature of assay [3]: IC50 of Table 2 (used for SI = IC50/MIC; test not described).
Assay [4] has as its system H37Rv strain of M. tuberculosis. Nature of the assay: BACTEC 460 radiometric system in BACTEC 12B medium: inhibition and MIC. In kind it is cell-based. As to conditions: for % Inhibition: 12.5 μg/mL; for MIC: lowest concentration inhibiting 99% of the inoculum.
Assay [5] relates to M. tuberculosis strain H37Rv. Nature of the assay: MIC against strains of Table 1. In kind it is cell-based.
Assay [6] has as its system TB. As to conditions: in vivo; cited from earlier work.
Assay [7] concerns M. tuberculosis. As to conditions: first line anti-TB drugs, for comparison; cited from earlier work.
Assay [8] concerns M. tuberculosis strain Erdman (TMCC 107/ATCC 35801). Nature of the assay: bone marrow-derived murine macrophage model, BC99. In kind it is cell-based.
Assay [9] deals with M. tuberculosis strain H37Ra. The experiment in a line: MIC against strains of Table 1. Format: cell-based.
Assay [10] relates to M. tuberculosis' synthesis of protein, RNA, DNA and lipid. Nature of the assay: incorporation of radiolabeled precursors into mycobacterial macromolecular components. Format: cell-based.
Assay [11] relates to M. tuberculosis strain CSU 93 (CDC-95-031551). The experiment in a line: bone marrow-derived murine macrophage model, BC99. As to conditions: concentration at which 99% of the inoculum is destroyed. In kind it is cell-based. Here is the method:
(§1) For comparison, MICs for the first line anti-TB drugs are 0.025-0.05 μg/mL for isoniazid, 0.005-0.2 μg/mL for rifampin, and 0.4-10 μg/mL for ethambutol. However, in a bone marrow-derived murine macrophage model, the BC 99 value of (+)-calanolide A, a concentration at which 99% of the inoculum of M. tuberculosis is destroyed, was 1.1 μg/mL (3 μM) against strain Erdman (TMCC 107/ATCC 35801) and 1.8 μg/mL (5 μM) against strain CSU 93 (CDC-95-031551), compared to 0.7-0.8 μg/mL (5-6 μM) for the positive control drug isoniazide.

Assay [12] relates to M. avium. Nature of the assay: inhibition of M. avium. In kind it is cell-based. The note with it: 12.5 μg/mL. The method, then:
as §1

The mark [13] stands for this setting: 2-fold dilutions, lowest concentration that completely inhibits growth, H37Ra, read-out: MIC.
The mark [14] stands for this setting: minimum bactericidal concentration, H37Ra, read-out: MBC.
Where [15] appears, read: Mycobacterium tuberculosis, read-out: MIC.

Converted amounts (≈) assume the structure as drawn. “And” between values parts separate entries of the source, which are not always exact repeats. Identical values can stand only once. Counter-ions that a name gives are not always drawn. Like-named read-outs stand apart in the source and are kept apart here. A value given as a limit tells only on which side of the number the result lay.

For the compound `CCCc1cc(=O)oc2c3c(c4c(c12)OC(C)(C)C=C4)O[C@H](C)[C@@H](C)C3N` (stereo partly shown) [Compound 22], the “effect on M. tuberculosis” value in assay [1] is on record as “bactericidal”. Further, the figures for the MIC in assay [1] (setting [13]) and in assay [2] were 16 µg/mL (≈ 43.3 µM) and 1.28 to 12.8 µg/mL (≈ 3.46 to 34.6 µM), respectively. Also, in assay [1] (setting [14]), the MBC turned out to be 32 µg/mL (≈ 86.6 µM).

For `CCCc1cc(=O)oc2c3c(c4c(c12)OC(C)(C)C=C4)O[C@@H](C)[C@H](C)[C@H]3O` [(−)-Calanolide A (2), (−)-Calanolide A], the half-maximal inhibitory concentration (IC50) in [3] was >10 µg/mL. Further, in assay [4], the “% Inhibition” value was determined as 98% and the MIC is 6.25 µg/mL (≈ 16.9 µM).

Consider `CO[C@H]1/C=C/O[C@@]2(C)Oc3c(C)c(O)c4c(O)c(c(/C=N/N5CCN(C)CC5)c(O)c4c3C2=O)NC(=O)/C(C)=C\C=C\[C@H](C)[C@H](O)[C@@H](C)[C@@H](O)[C@@H](C)[C@H](OC(C)=O)[C@@H]1C` [Rifampin], for which the MIC in assay [5] (setting [15]) was 0.016 µg/mL (≈ 0.0194 µM); in [7] it was 0.005 to 0.2 µg/mL. Also, in assay [6], the TB relapse rate was 5%.

On to `CCCc1cc(=O)oc2c(C(N)CC)c(OC(C)C)cc(OC(C)C)c12` (stereo not shown) [Compound 26c, 8-(1-Aminopropyl)-5,7-diisopropoxy-4-propyl-chromen-2-one, hydrochloride], for which the “effect on M. tuberculosis” value in assay [1] is listed as “bactericidal”. Also, the minimum inhibitory concentration (MIC) in [1] (setting [13]) is 16 µg/mL; in [2], 1.28 to 12.8 µg/mL. Moreover, the MBC in [1] (setting [14]) was determined as 64 µg/mL.

With `NNC(=O)c1ccncc1` [Isoniazid], the MIC in assay [5] (setting [15]) was 0.031 µg/mL (≈ 0.226 µM); in assay [9] (setting [15]) it was 0.063 µg/mL (≈ 0.459 µM); in [7], 0.025 to 0.05 µg/mL. Moreover, the “BC 99” value in assay [8] (positive control, one range printed for strains Erdman and CSU 93, listed as isoniazide) was 0.7-0.8 μg/mL and 5-6 μM.

Regarding `[H]/N=C(/N)N[C@H]1[C@H](O)[C@@H](O)[C@H](O[C@@H]2O[C@@H](C)[C@](O)(C=O)[C@H]2O[C@@H]2O[C@@H](CO)[C@H](O)[C@@H](O)[C@@H]2NC)[C@@H](N/C(N)=N\[H])[C@@H]1O` [Streptomycin], the MIC in assay [5] (setting [15]) was 0.25 µg/mL (≈ 0.43 µM). Also, the “inhibition of protein synthesis” value in assay [10] (positive control, at 5 hours) is 43%.

Consider `CC[C@@H](CO)NCCN[C@@H](CC)CO` [Ethambutol], for which the minimum inhibitory concentration (MIC) in [5] (setting [15]) was 2 µg/mL (≈ 9.79 µM); in assay [9] (setting [15]) it was 4 µg/mL (≈ 19.6 µM); in assay [7], 0.4 to 10 µg/mL.

`CO[C@H]1/C=C/O[C@@]2(C)Oc3c(C)c(O)c4c(O)c(c(/C=N/N5CCN(C6CCCC6)CC5)c(O)c4c3C2=O)NC(=O)/C(C)=C\C=C\[C@H](C)[C@H](O)[C@@H](C)[C@@H](O)[C@@H](C)[C@H](OC(C)=O)[C@@H]1C` [rifapentine]: the TB relapse rate in assay [6] is recorded as 10%.

For `CCCc1cc(=O)oc2c(C(=O)CC)c(OC)c3c(c12)OC(C)(C)CC3` [Compound 44b, 5-Methoxy-2,2-dimethyl-6-propionyl-10-propyl-3,4-dihydro-2H-pyrano[2,3-f]chromen-8-one], the values for the MIC in [1] (setting [13]) and in assay [2] were 16 µg/mL (≈ 44.6 µM) and 1.28 to 12.8 µg/mL (≈ 3.57 to 35.7 µM), respectively. The MBC in [1] (setting [14]) was > 64 µg/mL.

Regarding (+)-Calanolide A [(+)-Calanolide A (1)], the minimal inhibitory concentration (MIC) in assay [5] is 8 µg/mL; in assay [4], 3.13 µg/mL; in assay [4] (listed as (+)-calanolide A) it was 3.13 μg/mL and 8 μM; in [9], 16 µg/mL. In addition, the IC50 in assay [3] was 7.60 µg/mL. Further, the “BC 99” value in [11] is 1.8 μg/mL and 5 μM; in [8] (concentration at which 99% of the inoculum is destroyed, strain Erdman), 1.1 μg/mL and 3 μM. Also, the results for the “% Inhibition” value in [4], in assay [4] (listed as (+)-calanolide A) and in assay [12] were 96%, “greater than 96%” and 81%, respectively. Also, the “kind of agent from drug inhibition patterns” value in assay [8] (macrophage model) was “bactericidal agent”. In assay [10], the “inhibition of RNA synthesis, extent and time frame” value is reported as “very similar to the positive control rifampin”. The “inhibition of protein synthesis” value in assay [10] is recorded as 32%. In addition, the “inhibition of lipid synthesis” value in assay [10] ([…], 12-hour time point, DMSO alone 51%) came to 99%. Besides, the “inhibition of DNA synthesis” value in assay [10] ([…], period of 3 hours, DMSO alone 24%) is recorded as “Approximately 77%”.

Turning to `CCCc1cc(=O)oc2c(C(N)CC)c(OCCO)c3c(c12)OC(C)(C)C=C3` (stereo not shown) [Compound 45e, 6-(1-Aminopropyl)-5-(2-hydroxyethoxy)-2,2-dimethyl-10-propyl-2H-pyrano[2,3-f]chromen-8-one], the “effect on M. tuberculosis” value in assay [1] is “bactericidal”. Besides, in [1] (H37RA), the MBC turned out to be 32 µg/mL (≈ 82.6 µM) and the MIC was 16 µg/mL (≈ 41.3 µM). Further, in assay [2], the minimum inhibitory concentration (MIC) lay in the range of 1.28 to 12.8 µg/mL (≈ 3.3 to 33 µM).

The term MIC denotes the smallest concentration in the dilution series that meets the test's criterion for growth inhibition. As usually defined, the MBC is the smallest concentration meeting the test's criterion for killing. Broadly, the IC50 is the concentration needed to halve the response being measured. By % Inhibition is commonly meant the relative decrease from the control value, in per cent. Low readings indicate a weak effect, high ones a strong effect.
